Data: patent publication US20070191393A1, “Macrocyclic anilinopyrimidines with substituted sulphoximine as selective inhibitors of cell cycle kinases” (priority 2006, published 2007)

How the values were obtained:
Assay type in all cases: biochemical
CDK1/CycB = target: T1, CDK1/CycB (Homo sapiens, UniProt P06493); test: CDK1/CycB kinase assay; details: 0.5 μM ATP, 22° C., 10 min
T1 construct: GST; purchased ProQinase GmbH, Freiburg; host or cells: baculovirus-infected Sf9 insect cells
Description: Recombinant CDK1- and CycB-GST fusion proteins, purified from baculovirus-infected insect cells (Sf9), were purchased from ProQinase GmbH, Freiburg. The histone IIIS used as kinase substrate can be purchased from Sigma. CDK1/CycB (200 ng/measurement point) was incubated in the presence of various concentrations of test substances (0 μM, and within the range 0.01-100 μM) in assay buffer [50 mM Tris/HCl pH 8.0, 10 mM MgCl2, 0.1 mM Na ortho-vanadate, 1.0 mM dithiothreitol, 0.5 μM ATP, 10 μg/measurement point histone IIIS, 0.2 μCi/measurement point 33P-gamma ATP, 0.05% NP40, 1.25% dimethyl sulphoxide] at 22° C. for 10 min. The reaction was stopped by adding EDTA solution (250 mM, pH 8.0, 15 μl/measurement point).
15 μl of each reaction mixture were loaded onto P30 filter strips (from Wallac), and non-incorporated 33P-ATP was removed by washing the filter strips three times in 0.5% strength phosphoric acid for 10 min each time. After the filter strips had been dried at 70° C. for 1 hour, the filter strips were covered with scintillator strips (MeltiLex™ A, from Wallac) and baked at 90° C. for 1 hour. The amount of incorporated 33P (substrate phosphorylation) was determined by scintillation measurement in a gamma radiation counter (Wallac).

Chk1 = target: T2, Chk1 (Homo sapiens, UniProt O14757); test: Chk1 kinase assay; details: 10 μM ATP, 22° C., 60 min
T2 construct: made in house; host or cells: Sf9 insect cells
T2 sequence (O14757 1-476): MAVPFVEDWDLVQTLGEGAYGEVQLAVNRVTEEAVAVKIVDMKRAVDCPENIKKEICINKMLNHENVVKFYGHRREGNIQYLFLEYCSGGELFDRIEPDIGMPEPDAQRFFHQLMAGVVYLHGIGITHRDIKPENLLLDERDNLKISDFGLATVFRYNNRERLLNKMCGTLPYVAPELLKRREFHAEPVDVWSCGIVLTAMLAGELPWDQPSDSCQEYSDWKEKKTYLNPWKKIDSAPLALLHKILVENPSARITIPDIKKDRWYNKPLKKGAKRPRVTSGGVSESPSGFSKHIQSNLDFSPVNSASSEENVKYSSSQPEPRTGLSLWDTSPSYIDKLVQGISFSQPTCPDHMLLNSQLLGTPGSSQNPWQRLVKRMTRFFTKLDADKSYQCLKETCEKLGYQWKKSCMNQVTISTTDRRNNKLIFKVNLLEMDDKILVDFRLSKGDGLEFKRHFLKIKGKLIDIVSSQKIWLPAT
Description: Recombinant Chk1 protein was expressed in Sf9 insect cells and then purified. The kinase substrate used was the biotinylated peptide having the amino acid sequence biotin-ALKLVRTPSFVITAK, which was purchased from Biosynthan GmbH in Berlin.
Chk1 [0.11 μg/ml in the test mixture, test volume 5 μl] was incubated in the presence of various concentrations of test substances (0 μM, and 10 measurement points within the range 0.001-20 μM in duplicate) in assay buffer [50 mM HEPES pH 7.5, 10 mM MgCl2, […], 0.1 mM Na ortho-vanadate, 1.0 mM dithiothreitol, 1 tablet/2.5 ml complete protease inhibitor (from Roche), 10 μM ATP, 1.0 μM substrate peptide biotin-ALKLVRTPSFVITAK, 1.0% dimethyl sulphoxide] at 22° C. for 60 min. The reaction was stopped by adding 5 μl of an EDTA/detection solution [100 mM EDTA, 800 mM potassium fluoride, 0.2% BSA, 0.2 μM streptavidin-XLent (from CisBio), 9.6 nM anti-phospho-Akt antibody (from Cell Signalling Technology), 4 nM protein-A-Eu(K) (from CisBio)]. The fluorescence emission at 620 nm and 665 nm after excitation with light of the wavelength 350 nm was measured in a Rubystar HTRF instrument from BMG Labsystems.
The measured data (ratio of emission 665 divided by emission 620 multiplied by 10 000) were normalized to 0% inhibition (enzyme reaction without inhibitor) and 100% inhibition (all assay components apart from enzyme). The IC50 values were determined by means of a 4-parameter fit using the company's own software.

Aurora-C = target: T3, Aurora-C (Homo sapiens, UniProt Q9UQB9); test: Aurora-C kinase assay; details: 3 μM ATP, 22° C., 90 min
T3 construct: made in house; host or cells: HEK293 (transiently transfected)
T3 sequence (Q9UQB9 1-309): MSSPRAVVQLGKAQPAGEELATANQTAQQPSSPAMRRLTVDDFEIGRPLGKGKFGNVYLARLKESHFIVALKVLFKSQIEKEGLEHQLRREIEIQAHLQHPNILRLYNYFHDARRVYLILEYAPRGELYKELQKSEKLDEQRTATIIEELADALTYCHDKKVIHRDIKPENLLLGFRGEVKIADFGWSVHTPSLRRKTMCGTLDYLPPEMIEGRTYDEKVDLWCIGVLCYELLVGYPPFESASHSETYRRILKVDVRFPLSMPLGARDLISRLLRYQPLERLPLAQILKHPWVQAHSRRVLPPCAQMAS
Description: Recombinant Aurora-C protein was expressed in transiently transfected HEK293 cells and then purified. The kinase substrate used was the biotinylated peptide having the amino acid sequence biotin-FMRLRRLSTKYRT, which was purchased from Jerini A G in Berlin.
Aurora-C [5 nM in the test mixture, test volume 5 μl] was incubated in the presence of various concentrations of test substances (0 μM and 10 measurement points within the range 0.001-20 μM in duplicate) in assay buffer [25 mM HEPES pH 7.4, 0.5 mM MnCl2, 0.1 mM Na ortho-vanadate, 2.0 mM dithiothreitol, 0.05% bovine serum albumin (BSA), 0.01% Triton X-100, 3 μM adenosine trisphosphate (ATP), 0.67 nCi/μl gama-P33-ATP, 2.0 μM substrate peptide biotin-FMRLRRLSTKYRT, 1.0% dimethyl sulphoxide] at 22° C. for 90 min. The reaction was stopped by adding 12.5 μl of an EDTA/detection solution [16 mM EDTA, 40 mM ATP, 0.08% Triton X-100, 4 mg/ml PVT streptavidin SPA beads (from Amersham)]. After incubation for 10 minutes, the SPA beads were pelleted by centrifugation at 1000×G for 10 minutes. Measurement took place in a PerkinElmer Topcount scintillation counter. The measured data were normalized to 0% inhibition (enzyme reaction without inhibitor) and 100% inhibition (enzyme reaction in the presence of 0.1 μM staurosporine (from Sigma)). The IC50 values were determined by means of a 4-parameter fit using the company's own software.

T1 sequence (P06493 whole entry): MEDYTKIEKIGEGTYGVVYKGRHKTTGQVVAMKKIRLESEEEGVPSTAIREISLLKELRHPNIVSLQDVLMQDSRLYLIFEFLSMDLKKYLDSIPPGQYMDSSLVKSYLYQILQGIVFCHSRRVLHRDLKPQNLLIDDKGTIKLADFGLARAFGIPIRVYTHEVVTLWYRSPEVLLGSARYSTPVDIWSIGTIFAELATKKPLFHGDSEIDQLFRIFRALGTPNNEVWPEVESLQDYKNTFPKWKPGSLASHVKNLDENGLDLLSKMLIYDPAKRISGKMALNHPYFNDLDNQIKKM
T1 sequence (P14635 whole entry partner): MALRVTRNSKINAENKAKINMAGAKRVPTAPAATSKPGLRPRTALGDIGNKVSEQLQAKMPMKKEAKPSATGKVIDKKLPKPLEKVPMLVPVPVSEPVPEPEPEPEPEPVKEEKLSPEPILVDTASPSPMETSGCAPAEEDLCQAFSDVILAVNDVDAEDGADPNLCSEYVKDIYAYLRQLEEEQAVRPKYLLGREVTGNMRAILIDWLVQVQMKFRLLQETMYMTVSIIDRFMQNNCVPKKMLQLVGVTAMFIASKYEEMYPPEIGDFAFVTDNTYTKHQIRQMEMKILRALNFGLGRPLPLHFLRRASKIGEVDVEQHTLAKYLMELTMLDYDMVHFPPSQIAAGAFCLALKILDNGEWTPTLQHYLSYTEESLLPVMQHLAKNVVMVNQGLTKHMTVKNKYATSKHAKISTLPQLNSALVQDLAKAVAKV

Compound | IC50 (CDK1/CycB) | IC50 (Chk1) | IC50 (Aurora-C)
C[Si](C)(C)CCS(=O)(=O)N=S(C)(=O)c1ccc2cc1OCCCCNc1nc(ncc1Br)N2 (racemic) [Example 9, (RS)—S-[1^5-Bromo-4-oxa-2,9-diaza-1(2,4)-pyrimidina-3(1,3)-benzenacyclononaphan-3^4-yl]-S-methyl-N-[2-(trimethylsilyl)ethylsulphonyl]sulphoximide] | > 1000 nM | > 12500 nM | 95 nM
C[Si](C)(C)CCS(=O)(=O)N=S(C)(=O)c1ccc2cc1NCCCCNc1nc(ncc1Br)N2 (racemic) [Example 5, (RS)—S-[1^5-Bromo-2,4,9-triaza-1(2,4)-pyrimidina-3(1,3)-benzenacyclononaphan-3^4-yl]-S-methyl-N-[2-(trimethylsilyl)ethylsulphonyl]sulphoximide] | > 1000 nM | > 20000 nM | 88 nM
CCOC(=O)N=S(C)(=O)c1ccc2cc1NCCCCNc1nc(ncc1Br)N2 (racemic) [Example 1, (RS)—S-[1^5-Bromo-2,4,9-triaza-1(2,4)-pyrimidina-3(1,3)-benzenacyclononaphan-3^4-yl]-N-(ethoxycarbonyl)-S-methylsulphoximide] | 173 nM | 4640 nM | 19 nM
CCOC(=O)N=S(C)(=O)c1ccc2cc1NCCCCNc1nc(ncc1Br)N2 (single isomer, unassigned) [Example 2] | 104 nM | 3630 nM | 13 nM
CCOC(=O)N=S(C)(=O)c1ccc2cc1NCCCCNc1nc(ncc1I)N2 (racemic) [Example 4, (RS)—N-(Ethoxycarbonyl)-S-[1^5-iodo-2,4,9-triaza-1(2,4)-pyrimidina-3(1,3)-benzenacyclononaphan-3^4-yl]-S-methylsulphoximide] | 118 nM | 1850 nM | 24 nM
CCNC(=O)N=S(C)(=O)c1ccc2cc1NCCCCNc1nc(ncc1Br)N2 (racemic) [Example 6, (RS)—S-[1^5-Bromo-2,4,9-triaza-1(2,4)-pyrimidina-3(1,3)-benzenacyclononaphan-3^4-yl]-N-(ethylcarbamoyl)-S-methylsulphoximide] | 70 nM | 3770 nM | 19 nM
CCOC(=O)N=S(C)(=O)c1ccc2cc1NCCCCNc1nc(ncc1Br)N2 (single isomer, unassigned) [Example 3] | 210 nM | 6840 nM | 69 nM
CCCS(=O)(=O)N=S(C)(=O)c1ccc2cc1NCCCCNc1nc(ncc1Br)N2 (racemic) [Example 7, (RS)—S-[1^5-Bromo-2,4,9-triaza-1(2,4)-pyrimidina-3(1,3)-benzenacyclononaphan-3^4-yl]-S-methyl-N-(propylsulphonyl)sulphoximide] | 452 nM | > 20000 nM | 34 nM
CCCOC(=O)N=S(C)(=O)c1ccc2cc1OCCCCNc1nc(ncc1Br)N2 (racemic) [Example 8, (RS)—S-[1^5-Bromo-4-oxa-2,9-diaza-1(2,4)-pyrimidina-3(1,3)-benzenacyclononaphan-3^4-yl]-S-methyl-N-(propoxycarbonyl)sulphoximide] | 438 nM | > 20000 nM | 283 nM
